Values after ≈ are worked out from the molar mass of the structure shown. Values joined by “and” are separate entries in the source; they are usually repeats but may differ in a detail not shown here. Identical values can stand only once. Like-named read-outs stand apart in the source and are kept apart here.
Columns and labels:
[1] = tested on: SK-GT-4 EAC cells; assay: MTT proliferation assay, SK-GT-4 cells; type: cell-based; settings: read-out: Antiproliferative activity IC50, SK-GT-4
Procedure: (§1) The FLO-1, SK-GT-4, and THP-1 cell lines were a gift from Dr. Shrikant Anant’s laboratory. Cells were grown in 10% fetal bovine serum (Fisher Scientific#FB12999102, Pittsburgh, PA, USA) and 1% antibiotic/antimycotic agent (Corning, Tewksbury, MA, USA) in RPMI 1640 media mixed with […] HEPES, L-glutamine (Corning, MA, USA). The cell lines were grown in a 5% CO2 incubator at 37 °C and used below 15 passages for the experiments.
(§2) The proliferation assay used a 3-(4,5-dimethylthiazol-2-yl)-2,5-diphenyltetrazolium bromide (MTT) assay. Briefly, 5000 FLO-1 and SK-GT-4 cells were counted and seeded in each well in 96-well plates. Post 24 h of incubation, EAC cells were treated with multiple concentrations (0–10 μM) of niclosamide (Cayman chemical#10649, Ann Arbor, MI, USA) and its analogs. At respective time points, 10 μL of stock MTT reagent (Millipore Sigma, Bedford, MA, USA) (3 mg/mL) was added to each well and incubated for 1–2 h under the dark at 37 °C. After incubation, the purple formazan crystals were dissolved in equal volumes of DMSO, and the absorbance of the resulting clear solutions was recorded at 570 nm using a microplate reader. A CCK-8 (Abcam, Cat no. ab228554, Burlingame, CA, USA) assay was used for the THP-1 cells. Briefly, 5000 cells were plated in every well of a 96-well plate. After 24 h of plating, THP-1 cells were treated with niclosamide and compound 3a. After the respective time point, an equal amount of CCK-8 reagent was pipetted to the wells and incubated for one hour in an incubator, and finally, the absorbance was recorded at 450 nm. The percent change in the proliferation was calculated by comparing the cell viability of the treated groups to the untreated control cells.

[2] = tested on: FLO-1 EAC cells; assay: MTT proliferation assay, FLO-1 cells; type: cell-based; settings: read-out: Antiproliferative activity IC50, FLO-1
Procedure: as §1, §2

[3] = tested on: M. mycetomatis MM55 strain; assay: In vitro susceptibility testing (MTS), MM55 strain; type: cell-based, Madurella mycetomatis; settings: for IC50: read-out: Antifungal activity IC50; for IC90: read-out: Antifungal activity IC90
Procedure: (§3) The antifungal activity of the compounds was tested against a geographically and genetically diverse set of M. mycetomatis isolates. These included the MM55 strain from Sudan, strains I1, I3, and […] from India, strain P1 from Mali, strain SO1 from Somalia, strain Peru72012 from Peru, and strain CBS247.48 whose country of origin was unknown. All isolates were originally obtained from patients and identified and maintained in the Erasmus Medical Centre, Rotterdam, The Netherlands. In vitro susceptibility testing was performed as reported previously. The only difference was that tetrazolium compound 3-(4,5-dimethylthiazol-2-yl)-5-(3-carboxymethoxyphenyl)-2-(4-sulfophenyl)-2H-tetrazolium salt (MTS) was used as a viability dye in endpoint reading instead of 2,3-bis-(2-methoxy-4-nitro-5-sulfophenyl)-2H-tetrazolium-5-carboxanilide salt (XTT).

[4] = tested on: M. mycetomatis strains; assay: In vitro susceptibility testing (MIC), panel of eight strains; type: cell-based, Madurella mycetomatis; settings: for MIC50: concentration at which 50% of the eight isolates were completely inhibited
Procedure: as §3

[5] = tested on: M. mycetomatis MM55 strain; assay: In vivo activity in M. mycetomatis-infected G. mellonella larvae; parameters: species or system Galleria mellonella; d10 AUC / d10 ΔAUC: unit not given here; settings: 20 µM; for d10 AUC: area under the survival curve; for d10 Survival Corrected with Control / d10 Survival: day 10; for d10 ΔAUC: versus control
Procedure: (§4) In vivo efficacy was determined in larvae of the greater wax moth Galleria mellonella. Since G. mellonella is an invertebrate, it is not subject to directive 2010/63/EU of the European law on animal testing. Larvae were housed in the dark in Petri dishes with Whatman paper. To determine the toxicity in G. mellonella larvae, test compounds were injected on three consecutive days at 24 h intervals in the last pro-leg of healthy larvae followed by monitoring of the survival for ten days. If no significant difference between the control and treated larvae was observed, the compound was considered nontoxic. Larvae were further used in infection studies to determine the in vivo activity of test compounds against M. mycetomatis according to our previously published protocol.

[6] = tested on: M. mycetomatis SO1 isolate; parameters: method as in PMID 34209118; settings: read-out: IC50 against the Somalian SO1 isolate; cited from earlier work
[7] = tested on: Galleria mellonella larvae; assay: Toxicity in healthy Galleria mellonella larvae; type: in vivo; settings: 20 µM, 10 days
Procedure: as §4

[8] = Kinetic solubility; type: physicochemical; settings: aqueous buffer
Procedure: Kinetic solubility was tested using 10 mM stock solutions of test compounds in DMSO followed by dilution with an aqueous buffer to a final concentration of 250 µM and vortexed at 900 rpm for 24 h. Then, the samples were filtered and analyzed by UHPLC (Shimadzu Nexera X2, Milton Keynes, UK).

[9] = CHI logD; type: physicochemical; settings: reversed-phase UHPLC
Procedure: CHI (chromatographic hydrophobicity index) logD was determined according to previously published methods. Test compounds were prepared as 0.5 mM solutions in 50:50 acetonitrile/water and analyzed by reversed-phase UHPLC (wavelength 254 nm). By plotting the retention time of a set of reference compounds against known CHI values, the CHI value of test compounds was calculated according to their retention time, and this was then further converted to CHI logD.

[10] = Microsomal clearance; type: in vitro ADME; settings: for half-life at 0.5 µM: female, CD1, pH 7.4, mouse liver microsomes, read-out: Microsomal T ½; for Microsomal Clearance: mouse liver microsomes, 0.5 µM
Procedure: Liver microsomes were applied to study the microsomal clearance of test compounds. The test compound (0.5 µM) was incubated with female CD1 mouse liver microsomes (0.5 mg/mL, 50 mM potassium phosphate buffer, pH 7.4), and the reaction started with the addition of excess NADPH (8 mg/mL, 50 mM potassium phosphate buffer, and pH 7.4). Immediately, at time 0, then at 3, 6, 9, 15, and 30 min, an aliquot of the incubation mixture was removed and mixed with acetonitrile to stop the reaction. An internal standard (IS) was added to all samples, the samples were centrifuged to sediment precipitated protein, and the plates were then sealed prior to UPLC-MSMS analysis (Xevo TQ-S Micro, Waters^TM, Milford, MA, USA). An exponential decay fit was created from the response ratio (compound peak area/IS peak area) and incubation time, and subsequently, Clint (mL/min/mg protein) was calculated by multiplying the rate constant (k) of the exponential decay curve and incubation conditions (incubation volume/mg protein added).

[11] = HepG2 hepatotoxicity, resazurin assay; type: cell-based; settings: human, HepG2 hepatoma cells, two independent experiments
Procedure: (§5) HepG2 hepatoma cells were used for hepatotoxicity studies. Cells were provided by ECACC with a certificate of analysis confirming STR profiling and were mycoplasma tested every time new stabilates were made. Cells were screened utilizing a resazurin-based fluorescence assay (λex = 540 nm, λem = 590 nm) in a 384-well plate format. HepG2 cells (1 × 10^5 cells/mL) were incubated with the compound in a 10-point, 1 in 3 dilution series from a top concentration of 100 µM, for 72 h. After the 72 h incubation period, resazurin (0.27 mM in a cell culture medium) was added and the plates were incubated for a further 3–4 h before the fluorescent signal was measured using PHERAstar (BMG Labtech, Ortenberg, Germany). IC50 values were calculated from two independent experiments.

[12] = tested on: HepG2 hepatoma cells; assay: HepG2 hepatotoxicity, resazurin assay; type: cell-based; settings: 72 h, two independent experiments
Procedure: as §5

[13] = Madurella mycetomatis, MM55STRAIN
[14] = Madurella mycetomatis, CBS247, strain CBS247.48, read-out: MIC, CBS247.48
[15] = Madurella mycetomatis, strain I1, read-out: MIC, I1
[16] = Madurella mycetomatis, strain I3, read-out: MIC, I3
[17] = Madurella mycetomatis, strain I11, read-out: MIC, I11
[18] = Madurella mycetomatis, strain MM55, read-out: MIC, MM55
[19] = Madurella mycetomatis, strain P1, read-out: MIC, P1
[20] = Madurella mycetomatis, strain Peru72012, read-out: MIC, Peru72012
[21] = Madurella mycetomatis, strain SO1, read-out: MIC, SO1

IC50 ([1]; SKGT4, 72 h) [nM] | IC50 [3, 13] [nM] | IC90 [3, 13] [nM] | SMILES | IC50 ([2]; FLO-1, 72 h) [nM] | MIC [4, 14] [µM] | MIC [4, 15] [µM] | MIC [4, 16] [µM] | MIC [4, 17] [µM] | MIC [4, 18] [µM] | MIC [4, 19] [µM] | MIC [4, 20] [µM] | MIC [4, 21] [µM] | MIC50 ([4]; Madurella mycetomatis) [µM] | d10 AUC [5] | d10 Survival Corrected with Control ([5]; infected larvae) [%] | d10 ΔAUC [5] | further results
1380 ± 450 | 1300 ± 700 | 2000 ± 100 | O=C(Nc1cccc(S(F)(F)(F)(F)F)c1)c1cc(Cl)ccc1O [Compound 2c, 5-Chloro-2-hydroxy-N-(3-pentafluorosulfanylphenyl)benzamide] | 1380 ± 400 | 2 (≈ 0.747 µg/mL) | 1 (≈ 0.374 µg/mL) | 1 (≈ 0.374 µg/mL) | 2 (≈ 0.747 µg/mL) | 2 (≈ 0.747 µg/mL) | 0.5 (≈ 0.187 µg/mL) | 1 (≈ 0.374 µg/mL) | 1 (≈ 0.374 µg/mL) | 1 (≈ 0.374 µg/mL) | 346.7 | −3.33 | 15 | melting point: 197 °C
– | – | – | N.N.[Cl][Pt][Cl] [Cisplatin, reference compound] | – | – | – | – | – | – | – | – | – | – | – | – | – | IC50 ([1]; 72 h): 2280 ± 140 nM; IC50 ([2]; 72 h): 1700 ± 1480 nM
7100 ± 750 | 6600 ± 2000 | 8400 ± 1100 | CCc1ccc(NC(=O)c2cc(Cl)ccc2O)cc1 [Compound 2d] | 6130 ± 960 | – | – | – | – | – | – | – | – | – | – | – | – | –
– | – | – | O=C(Nc1cccc(C(F)(F)F)c1)c1cc(Cl)ccc1O [MMV665807] | – | – | – | – | – | – | – | – | – | – | – | – | – | IC50 [6]: 9930 nM
– | 900 ± 200 | 1100 ± 200 | O=C(Nc1ccc(C(F)(F)F)cc1)c1cc(Cl)ccc1O [Compound 2e] | – | 2 (≈ 0.631 µg/mL) | 1 (≈ 0.316 µg/mL) | 1 (≈ 0.316 µg/mL) | 2 (≈ 0.631 µg/mL) | 2 (≈ 0.631 µg/mL) | 1 (≈ 0.316 µg/mL) | 1 (≈ 0.316 µg/mL) | 1 (≈ 0.316 µg/mL) | 1 (≈ 0.316 µg/mL) | 453.3 | 3.33 | 121.6 | MIC ([4]; strain MM55, read-out: MIC, MM55): 1.0 µM (≈ 0.316 µg/mL)
– | – | – | O=C(Nc1ccc(SC(F)(F)F)cc1)c1cc(Cl)ccc1O [Compound 2b, 5-Chloro-2-hydroxy-N-(4-trifluoromethylsulfanylphenyl)benzamide] | – | 0.5 (≈ 0.174 µg/mL) | 0.5 (≈ 0.174 µg/mL) | 0.5 (≈ 0.174 µg/mL) | 0.5 (≈ 0.174 µg/mL) | 0.5 (≈ 0.174 µg/mL) | 0.3 (≈ 0.104 µg/mL) | 0.3 (≈ 0.104 µg/mL) | 0.5 (≈ 0.174 µg/mL) | 0.5 (≈ 0.174 µg/mL) | 451.7 | −3.33 | 120 | IC50 ([1]; 72 h): 2020 ± 140 nM; IC50 ([2]; 72 h): 2200 ± 360 nM; IC50 [3]: 200 ± 100 nM; IC90 [3]: 500 ± 600 nM; Toxicity to non-infected G. mellonella larvae [7]: not toxic; Effect on survival between days three and six ([5]; infected larvae): considerable temporary effect; d10 Survival ([5]; infected larvae): no increased survival; Kinetic solubility ([8]; 24 h): stability issues; chromatographic logD [9]: 4.3; half-life at 0.5 µM [10]: 6.66 min; Microsomal Clearance [10]: 0.21 mL/min/mg Protein; IC50 at 72 h [11]: 2300 to 3000 nM; IC50 [12]: 2990 ± 110 nM; melting point: 200 to 201 °C

SMILES | IC50 ([1]; SKGT4, 72 h) [nM] | IC50 [3, 13] [nM] | IC90 [3, 13] [nM] | IC50 ([2]; FLO-1, 72 h) [nM] | MIC [4, 14] [µM] | MIC [4, 15] [µM] | MIC [4, 16] [µM] | MIC [4, 17] [µM] | MIC [4, 18] [µM] | MIC [4, 19] [µM] | MIC [4, 20] [µM] | MIC [4, 21] [µM] | MIC50 ([4]; Madurella mycetomatis) [µM] | d10 AUC [5] | d10 Survival Corrected with Control ([5]; infected larvae) [%] | d10 ΔAUC [5] | further results
O=C(Nc1ccc(S(F)(F)(F)(F)F)cc1)c1cc(Cl)ccc1O [Compound 2a, 5-Chloro-2-hydroxy-N-(4-pentafluorosulfanylphenyl)benzamide] | 1800 ± 170 | – | 1900 ± 600 | 1620 ± 550 | 0.5 (≈ 0.187 µg/mL) | 0.5 (≈ 0.187 µg/mL) | 0.5 (≈ 0.187 µg/mL) | 0.5 (≈ 0.187 µg/mL) | 0.5 (≈ 0.187 µg/mL) | 0.5 (≈ 0.187 µg/mL) | 0.3 (≈ 0.112 µg/mL) | 0.5 (≈ 0.187 µg/mL) | 0.5 (≈ 0.187 µg/mL) | 445 | 13.33 | 113.3 | IC50 [3]: 300 ± 100 nM; Toxicity to non-infected G. mellonella larvae [7]: not toxic; d10 Survival ([5]; infected larvae): 26.7% and 26.67%; solubility kinetic at 24 h ([8]; kinetic from dmso stock): 0.67 µM (≈ 0.25 µg/mL); chromatographic logD [9]: 3.9; half-life at 0.5 µM [10]: > 30 min; Microsomal Clearance [10]: 0.02 mL/min/mg Protein; IC50 at 72 h [11]: 2300 to 3000 nM; IC50 [12]: 2260 ± 310 nM

From publication PMC11275179, “Superior Anticancer and Antifungal Activities of New Sulfanyl-Substituted Niclosamide Derivatives” (Biomedicines, 2024)
